From the METLIN SMRT retention time set (Domingo-Almenara et al. 2019)

test: gradient 5% acetonitrile 3 min, to 50% in 2 min, to 85% in 15 min, held 3 min, 100 µL/min; settings: column: Zorbax Extend-C18 2.1 x 50 mm; eluents: water / acetonitrile, 0.1% formic acid
How it was run: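 In both positive and negative ionization mode, a quadrupole time-of-flight mass spectrometer coupled to HPLC analyzed pure standards run in mixtures of ~100 molecules. The Zorbax Extend-C18 column (2.1 × 50 mm, 1.8 μm) was operated at 100 μL/min with water and acetonitrile, each containing 0.1% formic acid. The dead volume was 40 μL and the dwell volume 900 μL. Retention time came from adduct peaks that were computationally picked and individually inspected by hand.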

SMILES	RP-LC retention time [s]
O=c1n(Cc2cc(F)cc(F)c2)nc2c(S(=O)(=O)N3CCc4ccccc4C3)cccn12	966
COc1ccc2c(c1)C1(CCN(C(=O)Cc3ccccc3C)C1)C(=O)N2C (stereo not given)	826
CC(C)c1ccc(-n2nc(N3CCN(C(=O)CCC(=O)N4CCOCC4)CC3)ccc2=O)cc1	695
CCC(C)N(CC(=O)N1CCc2sccc2C1COc1ccc(Cl)cc1)C(=O)COC (stereo not given)	955
CC(C)n1cc(S(=O)(=O)Nc2ccc(F)cc2F)c2cccnc21	890
COc1ccc(NC(=O)Cc2c(C)nn(-c3nc(-c4ccc(Cl)cc4)cs3)c2C)cc1	1210
CCc1noc(NC(C)=O)c1-c1ccc(C)c(S(=O)(=O)NCc2ccco2)c1	766
CCC(=O)NCc1cnn(-c2ccc(C(=O)Nc3ccc4c(c3)OCCO4)cc2)c1	702
Cc1ccccc1N1CCN(C(=O)c2cc(C)n3nccc3n2)CC1	883
CN1C(=O)c2cccnc2Sc2cc(NC(=O)Cc3ccc(F)cc3)ccc21	834
COc1cc(C2CC(=O)c3cnc(N4CCN(C)CC4)nc3C2)cc(OC)c1OC (stereo not given)	628
OC(CN1CCN(c2ccccc2Cl)CC1)c1ccc2c(c1)OCO2 (stereo not given)	670
Cc1cc(C(=O)NC(C)C)c2cc(Br)ccc2n1	702
COc1cc(NC(=O)N2CCC(C)(C(=O)NCc3ccc(C)cc3)CC2)cc(OC)c1OC	765
CCOC(=O)N1CCC(NC(=O)c2cc3sccc3n2Cc2ccc(Cl)cc2)CC1	1060
CC(C)Oc1ccc(CNC(=O)CCc2c(-c3ccc(Br)cc3)nc3ccccn23)cc1	744
CCN1CCN(c2nc(F)c(F)c(S(=O)(=O)CCNc3cccc(C(F)(F)F)c3)c2F)CC1	731
O=C(Nc1cnc(N2CCCC2)nc1)c1cc(F)cc(F)c1	765
CC1(C)CCC=[N+]1[O-]	487
CC(C)c1ccc(NC(=O)Cn2cnc3nc4c(cc3c2=O)CCCC4)cc1	762
Cc1cccc(-c2nnc(-c3cccc(S(=O)(=O)N4CCC(C)CC4)c3)o2)c1	1220
Cc1ccccc1-c1noc(-c2nnn3c2COC(c2ccc(F)cc2)C3)n1 (stereo not given)	1000

SMILES	RP-LC retention time [s]
CCn1cnc(S(=O)(=O)N2CCC(C(=O)NC3CCCCC3)CC2)c1	686
N#Cc1nc(-c2cccs2)oc1N1CCN(C(=O)c2ccco2)CC1	789
COC(=O)c1cc(S(=O)(=O)N2CCCC2C(=O)Nc2c(Cl)cc(OC)cc2OC)cn1C (stereo not given)	930
Cc1ccc(CCNC(=O)c2ncn3c2C(=O)N(C2CC2)C(C)(C(=O)NC2CCCC2)C3)cc1 (stereo not given)	795
Cc1c(C2CCN(C(=O)c3nccc4ccccc34)CC2)noc1N	617
Cc1cc(C)cc(NC(=O)C2CCN(S(=O)(=O)c3cc(C(=O)N4CCOCC4)cs3)CC2)c1	760
COc1ccc(N2CCN(c3nccc(-n4nc(C)cc4C)n3)CC2)cc1	956
Cc1ccc(N2C(=O)C3N=NN(c4ccc(C)c(Cl)c4)C3C2=O)cc1F (stereo not given)	836
CCC1CCCCN1C(=O)c1cnc2nc(C)ccc2c1Nc1ccccc1 (stereo not given)	650
CCC(C)NC(=O)Cn1nc(-c2nc(-c3cccc(C)c3)no2)c2ccccc21 (stereo not given)	1170
Cc1ccc(C(=O)NCCn2c(=O)n(Cc3ccc(F)cc3)c3cccnc32)s1	781
CC(C)c1nnc2n1CCN(C(=O)c1cc(-c3ccccc3)n[nH]1)C2	647
COc1ccccc1C(CNC(=O)c1cc(=O)c2c(C)cc(C)cc2o1)N(C)C (stereo not given)	645
O=c1c2cc(-c3cccs3)nn2cnn1Cc1nc(-c2ccccc2Br)no1	1050
O=C(NCc1ccc(F)cc1)C1CCc2nc(N3CCOCC3)ncc2C1 (stereo not given)	808
COCCN1C(=O)[C@H]2CN(Cc3ccc(F)c(F)c3)C[C@H]2C1=O	623
O=C(C1CCN(c2ncccc2-c2nc(-c3cccc(F)c3)no2)CC1)N1CCC2(CC1)OCCO2	1010
O=C(NC1CCc2nnc(C3CC3)n2CC1)c1ccc(Cn2cncn2)o1 (stereo not given)	558
Cc1cc(C(=O)NCc2ccco2)c2c(C)nn(-c3ccccc3Cl)c2n1	860
CCc1ccc(CNC(=O)C2CCCN(c3nc4c(s3)c(C)nn4-c3ccccc3)C2)cc1 (stereo not given)	1230
CCc1ccc2c(c1)cc(S(=O)(=O)c1ccccc1)c(=O)n2CC(=O)N1CCCCC1	620
O=C(Nc1c(C(=O)Nc2ccccc2F)oc2ccccc12)c1ccc(Br)o1	1190

SMILES	RP-LC retention time [s]
Cc1ccc(Cn2nnc3cc(C(=O)N4CCN(c5ncccn5)CC4)ccc32)cc1	822
Cc1ccc(-c2cn3ccccc3n2)cc1NS(=O)(=O)c1ccc(F)cc1	665
Cc1nn2c(CNC(=O)c3ccc(F)cc3)c(-c3ccccc3)nc2s1	840
COc1ccc(C(=O)N(Cc2cc(OC)c(OC)c(OC)c2)C2CCS(=O)(=O)C2)cc1Cl (stereo not given)	817
Cc1ccc(-c2ncccc2CNS(=O)(=O)c2ccc(C)c(F)c2)cc1	769
CCC(=O)N1CCc2c([nH]c3ccc(Cl)cc23)C12C(=O)N(C)c1ccccc12 (stereo not given)	901
CCOCCCNC(=O)CN1c2ccc(F)cc2-c2ccccc2S1(=O)=O	820
CC(C)c1ccc(C(=O)N2CCc3c(c(-c4nc(C5CC5)no4)nn3C)C2)cc1	971
CCCCN(CC)S(=O)(=O)c1cc(-c2nnc(C)o2)co1	869
Cc1nc2c(C(=O)NCCN(C)C)cnn2c(C)c1Cc1ccccc1Cl	674
CCOC(=O)c1cccc(N2C=C(C(=O)OC)S(=O)(=O)c3ccc(F)cc32)c1	908
O=C(NCCc1ccncc1)c1ccc2c(c1)ncn2-c1ccccc1	550
COC(=O)c1[nH]c(C)c(C(=O)C(C)N(CC2CCCCC2)C(=O)c2ccc(OC)cc2)c1C (stereo not given)	708
Cc1csc(NC(=O)C2CCCN(S(=O)(=O)c3c[nH]c(C(=O)N4CCCC4)c3)C2)n1 (stereo not given)	714
NP(=O)(Oc1c2occc2cc2ccc(=O)oc12)N(CCCl)CCCl (stereo not given)	738
CC(C)n1cnc2cc(CNC(=O)c3ccc(C#N)cc3F)ccc21	597
CC(n1cc(C[C@H](N)C(=O)O)c2ccccc21)n1cc(C[C@H](N)C(=O)O)c2ccccc21	628
Cc1ccc(Sc2nccnc2N2CCC(C(=O)NCc3ccc(F)cc3F)CC2)cc1	1070
O=C(NC1CC1)C1CCN(S(=O)(=O)Cc2ccc(F)cc2)CC1	929
CCn1cc(CCNC(=O)c2ccc(OC)cc2)c2cccnc21	675
CC(O)c1ccc(-c2ccc(CNCCCn3ccnc3)o2)cc1 (stereo not given)	513
